Reference: ChEMBL document CHEMBL5150060 (J Med Chem, 2022)
pIC50: −log10 of the molar value. Activity calls are given as the source filed them. The calls are words filed in the database; no cut-off is given here.

Assays:
[1] = target: T1, Histone deacetylase 8 (Homo sapiens) (UniProt Q9BY41); assay: Inhibition of HDAC8 in human Jurkat T cells assessed as upregulation of IL23 expression after 6 hrs by RT-qPCR analysis; type: cell-based; settings: dose 0.1-10 µM, DDE = dose-dependent effect
T1 sequence (whole entry): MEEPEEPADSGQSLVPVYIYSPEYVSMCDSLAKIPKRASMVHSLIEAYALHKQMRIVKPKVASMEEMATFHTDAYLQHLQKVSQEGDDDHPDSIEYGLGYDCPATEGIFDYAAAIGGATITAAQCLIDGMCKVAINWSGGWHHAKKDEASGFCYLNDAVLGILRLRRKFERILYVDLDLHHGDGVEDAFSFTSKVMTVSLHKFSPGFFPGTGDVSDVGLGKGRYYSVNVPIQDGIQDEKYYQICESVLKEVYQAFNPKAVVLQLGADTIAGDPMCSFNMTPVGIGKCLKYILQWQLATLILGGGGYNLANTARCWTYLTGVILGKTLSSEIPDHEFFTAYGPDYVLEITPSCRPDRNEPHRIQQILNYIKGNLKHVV

Histone deacetylase 2 = Histone deacetylase 2 (Homo sapiens, UniProt Q92769); assay: Inhibition of recombinant human HDAC2 using p53 (Ac-RHKK(Acetyl)-AMC) as substrate preincubated for 5 mins followed by substrate addition and measured after 30 mins by fluorescence based analysis
Chain of Histone deacetylase 2 (Q92769 whole entry): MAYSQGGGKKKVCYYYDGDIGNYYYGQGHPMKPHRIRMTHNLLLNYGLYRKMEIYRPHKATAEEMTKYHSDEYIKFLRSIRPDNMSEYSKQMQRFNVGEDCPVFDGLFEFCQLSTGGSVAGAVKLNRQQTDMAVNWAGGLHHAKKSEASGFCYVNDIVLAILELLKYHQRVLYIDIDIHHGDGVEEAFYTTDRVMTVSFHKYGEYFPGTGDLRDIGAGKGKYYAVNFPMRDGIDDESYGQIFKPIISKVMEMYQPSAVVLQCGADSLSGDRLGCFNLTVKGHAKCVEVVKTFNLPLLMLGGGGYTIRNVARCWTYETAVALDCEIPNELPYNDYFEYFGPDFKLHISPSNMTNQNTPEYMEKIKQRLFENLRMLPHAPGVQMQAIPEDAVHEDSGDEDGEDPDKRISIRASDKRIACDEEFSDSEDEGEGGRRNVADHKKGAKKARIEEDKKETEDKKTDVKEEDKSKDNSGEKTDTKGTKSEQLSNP

Histone deacetylase 4 = Histone deacetylase 4 (Homo sapiens, UniProt P56524); assay: Inhibition of HDAC4 (unknown origin)
Chain of Histone deacetylase 4 (P56524 whole entry): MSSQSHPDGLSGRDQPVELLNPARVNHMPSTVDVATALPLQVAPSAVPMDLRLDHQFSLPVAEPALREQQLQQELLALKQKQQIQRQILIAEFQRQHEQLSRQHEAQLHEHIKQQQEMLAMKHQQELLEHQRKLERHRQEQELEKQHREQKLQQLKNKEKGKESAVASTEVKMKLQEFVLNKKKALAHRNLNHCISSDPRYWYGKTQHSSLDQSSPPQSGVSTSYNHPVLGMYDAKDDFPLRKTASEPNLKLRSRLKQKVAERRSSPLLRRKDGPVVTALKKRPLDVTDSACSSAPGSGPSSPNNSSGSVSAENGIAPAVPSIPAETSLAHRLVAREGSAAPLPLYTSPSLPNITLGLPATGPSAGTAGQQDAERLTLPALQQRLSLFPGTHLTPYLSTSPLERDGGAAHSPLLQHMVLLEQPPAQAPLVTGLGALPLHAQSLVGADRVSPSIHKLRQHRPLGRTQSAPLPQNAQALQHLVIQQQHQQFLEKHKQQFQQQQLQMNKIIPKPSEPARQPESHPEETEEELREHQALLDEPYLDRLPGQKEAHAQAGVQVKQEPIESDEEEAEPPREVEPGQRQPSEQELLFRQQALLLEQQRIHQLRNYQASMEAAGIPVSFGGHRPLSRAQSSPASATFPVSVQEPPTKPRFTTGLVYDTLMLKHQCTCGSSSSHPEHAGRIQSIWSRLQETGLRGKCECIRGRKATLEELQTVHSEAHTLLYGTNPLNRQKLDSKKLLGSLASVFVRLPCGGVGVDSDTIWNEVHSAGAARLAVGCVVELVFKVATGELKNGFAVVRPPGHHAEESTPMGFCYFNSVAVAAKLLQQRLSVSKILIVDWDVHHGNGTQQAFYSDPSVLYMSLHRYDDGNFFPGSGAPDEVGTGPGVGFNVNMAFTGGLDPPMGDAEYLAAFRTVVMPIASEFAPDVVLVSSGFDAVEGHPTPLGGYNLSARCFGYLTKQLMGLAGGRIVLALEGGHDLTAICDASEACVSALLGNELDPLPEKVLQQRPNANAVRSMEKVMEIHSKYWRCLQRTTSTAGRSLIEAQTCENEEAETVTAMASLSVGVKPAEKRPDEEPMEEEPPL

[2] = target: T2, Protein deacetylase HDAC6 (Homo sapiens, UniProt Q9UBN7); assay: Inhibition of recombinant human HDAC6 (unknown origin)
T2 sequence (Q9UBN7 whole entry): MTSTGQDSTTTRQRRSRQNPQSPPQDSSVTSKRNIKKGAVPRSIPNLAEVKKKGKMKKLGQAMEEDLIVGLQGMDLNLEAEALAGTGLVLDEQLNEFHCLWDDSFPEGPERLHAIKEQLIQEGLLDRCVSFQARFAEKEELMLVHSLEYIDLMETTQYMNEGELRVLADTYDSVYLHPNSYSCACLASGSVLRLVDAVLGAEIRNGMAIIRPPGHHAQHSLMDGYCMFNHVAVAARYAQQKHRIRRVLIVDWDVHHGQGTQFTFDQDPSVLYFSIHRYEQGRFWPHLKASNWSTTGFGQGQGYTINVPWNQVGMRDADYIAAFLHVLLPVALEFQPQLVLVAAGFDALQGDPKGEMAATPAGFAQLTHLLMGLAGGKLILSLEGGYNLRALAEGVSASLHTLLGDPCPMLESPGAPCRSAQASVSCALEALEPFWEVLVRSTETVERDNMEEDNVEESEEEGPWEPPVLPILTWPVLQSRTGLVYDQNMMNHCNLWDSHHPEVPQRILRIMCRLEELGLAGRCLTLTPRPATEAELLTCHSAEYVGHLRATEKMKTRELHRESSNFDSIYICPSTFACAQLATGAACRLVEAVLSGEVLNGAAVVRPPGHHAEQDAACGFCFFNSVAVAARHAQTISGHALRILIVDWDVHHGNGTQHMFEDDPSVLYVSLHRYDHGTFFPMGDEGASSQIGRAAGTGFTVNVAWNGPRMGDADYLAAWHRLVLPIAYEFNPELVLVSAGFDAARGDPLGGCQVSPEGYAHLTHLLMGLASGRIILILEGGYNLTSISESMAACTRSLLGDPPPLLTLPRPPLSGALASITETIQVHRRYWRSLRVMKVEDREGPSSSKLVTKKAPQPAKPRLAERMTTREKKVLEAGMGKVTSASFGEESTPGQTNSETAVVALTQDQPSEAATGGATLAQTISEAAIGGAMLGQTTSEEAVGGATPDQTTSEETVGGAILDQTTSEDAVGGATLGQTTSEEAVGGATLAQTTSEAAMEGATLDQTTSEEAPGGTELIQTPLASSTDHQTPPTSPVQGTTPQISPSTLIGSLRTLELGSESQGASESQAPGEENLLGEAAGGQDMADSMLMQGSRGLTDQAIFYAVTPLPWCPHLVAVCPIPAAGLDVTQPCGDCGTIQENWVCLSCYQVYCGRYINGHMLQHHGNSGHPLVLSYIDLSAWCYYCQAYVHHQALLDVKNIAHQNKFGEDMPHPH

[3] = Stability of compound in DMEM/DMSO/acetonitrile at pH 7.4 measured after 6 hrs by HPLC analysis; type: physicochemical; settings: read-out: Stability
[4] = Stability of compound in DMEM/DMSO/acetonitrile at pH 7.4 measured after 12 hrs by HPLC analysis; type: physicochemical; settings: read-out: Stability
[5] = Stability of compound in DMEM/DMSO/acetonitrile at pH 7.4 measured after 48 hrs by HPLC analysis; type: physicochemical; settings: read-out: Stability
HEK293 = assay: Cytotoxicity against HEK293 cells assessed as reduction in cell viability at 50 uM after 24 hrs by alamar blue assay; type: toxicity, cell-based; settings: human, hek293, 24 h
[6] = target: T1, Histone deacetylase 8 (Homo sapiens); assay: Inhibition of HDAC8 in human Jurkat T cells assessed as increase in H3K27 acetylation at 10 uM after 6 hrs by Western blot analysis; type: cell-based
[7] = target: T1, Histone deacetylase 8 (Homo sapiens); assay: Inhibition of HDAC8 in human Jurkat T cells assessed as upregulation of IL23 expression at 10 uM after 6 to 12 hrs by RT-qPCR analysis; type: cell-based; settings: time 6-12 hrs
[8] = target: T1, Histone deacetylase 8 (Homo sapiens); assay: Inhibition of HDAC8 in human Jurkat T cells assessed as upregulation of IL10 expression after 6 hrs by RT-qPCR analysis; type: cell-based; settings: dose 0.1-10 µM, DDE = dose-dependent effect
[9] = target: T1, Histone deacetylase 8 (Homo sapiens); assay: Inhibition of HDAC8 in human Jurkat T cells assessed as upregulation of KLRG1 expression after 6 hrs by RT-qPCR analysis; type: cell-based; settings: dose 0.1-10 µM, DDE = dose-dependent effect
[10] = target: T1, Histone deacetylase 8 (Homo sapiens); assay: Inhibition of HDAC8 in human Jurkat T cells assessed as upregulation of PRDM1 expression after 6 hrs by RT-qPCR analysis; type: cell-based; settings: dose 0.1-10 µM, DDE = dose-dependent effect
[11] = target: T1, Histone deacetylase 8 (Homo sapiens); assay: Inhibition of HDAC8 in human Jurkat T cells assessed as upregulation of TBX21 expression after 6 hrs by RT-qPCR analysis; type: cell-based; settings: dose 0.1-10 µM, DDE = dose-dependent effect
Mus musculus [12] = assay: Immuno-modulatory activity in C57BL/6 mouse assessed as increase in proportion of CD3+ cells in spleen at 10 mg/kg, ip administered 5 days per week for 2 weeks by flow cytometry analysis; type: functional, organism-based
Mus musculus [13] = assay: Immuno-modulatory activity in C57BL/6 mouse assessed as increase in proportion of CD8+ cells in spleen at 10 mg/kg, ip administered 5 days per week for 2 weeks by flow cytometry analysis; type: functional, organism-based
Mus musculus [14] = assay: Immuno-modulatory activity in C57BL/6 mouse assessed as increase in IL2 expression in CD4+ cells at 10 mg/kg, ip administered 5 days per week for 2 weeks by RT-qPCR analysis; type: functional, organism-based
[15] = Toxicity in C57BL/6 mouse assessed as change in intestine weight at 5 to 10 mg/kg, ip administered 5 days per week for 2 weeks by H and E staining based assay; type: organism-based; settings: in vivo, 336 h, dose 5-10 mg/kg
[16] = Toxicity in C57BL/6 mouse assessed as change in kidney weight at 5 to 10 mg/kg, ip administered 5 days per week for 2 weeks by H and E staining based assay; type: organism-based; settings: in vivo, 336 h, dose 5-10 mg/kg
[17] = Toxicity in C57BL/6 mouse assessed as change in stomach weight at 5 to 10 mg/kg, ip administered 5 days per week for 2 weeks by H and E staining based assay; type: organism-based; settings: in vivo, 336 h, dose 5-10 mg/kg

inhibition [1]: Dde
pIC50 (Histone deacetylase 2): 4.92
pIC50 (Histone deacetylase 4): < 4.70
pIC50 [2]: < 4.70
remaining at 6 h [3]: 103%
remaining at 12 h [4]: 104%
remaining at 48 h [5]: 104%
inhibition [6]: Active
inhibition [7]: Active
inhibition [8]: Dde
inhibition [9]: Dde
inhibition [10]: Dde
inhibition [11]: Dde
SMILES: CCCCCCNNC(=O)c1ccc(-c2ccc(CNC(C)=O)cc2)cc1
Cell viability (HEK293): 121.3%
Activity (Mus musculus [12]): Active
Activity (Mus musculus [13]): Active
Activity (Mus musculus [14]): Active
Activity [15]: Non-Toxic
Activity [16]: Non-Toxic
Activity [17]: Non-Toxic
